Measurements from patent US20050042209A1, “MUC1 extracellular domain and cancer treatment compositions and methods derived therefrom” (priority 2000, published 2005).

What was measured:
MUC1 [1] = system: MUC1
Procedure: Cell Culture: Human MCF-7 breast carcinoma and HeLa cervical carcinoma cella (obtained form the ATCC, Manassas, Va.) were grown in DMEM (high glucose; Mediatech, Cellgrow) supplemented with 10% heat-inactivated fetal calf serum (FCS) and 2 mM L-glutamate.
Immunoblot analysis: Cells were lysed in ice-cold lysis buffer (20 mM Tris-HCl, pH 8.0, 150 mM NaCl, 1% Triton-X-100, 1 mM phenylsulfonyl fluoride, 1 mM DTT, 10 μgm/ml aprotinin) for 30 min. Lysates were cleared by centrifugation for 20 min. at 4° C. as described (Yin et al, 2001). Proteins were separated by SDS-PAGE, transferred to nitrocellulose and probed with anti-DF3/MUC1 (Kufe, U.S. Pat. No. 5,506,34) or anti-β-actin (Sigma). The antigen-antibody complexes were visualized by enhanced chemiluminescence (ECL; Amersham Life Sciences).
CDDO downregulates MUC1 expression: MUC1-positive cells were treated with CDDO at concentrations of 1, 3 and 5 μM.

intracellular ROS = details: NAC pretreatment
Procedure: Measurement of ROS levels: Cells were incubated with 10 mM DCF-DA Sigma) for 15 min. at 37° C. to assess ROS-mediated oxidation of the fluorescent compound DCF (LeBel et al., 1992). Fluorescence of oxidized DCF was measured at an excitation wavelength of 480 nm and an emission wavelength of 525 nm using a flow cytometer (Beckton Dickerson, Lincoln Park, N.J.).
As a control, cells were incubated with NAC, a scavenger of ROS.

MUC1 [2] = experiment: MUC1 induction by oxidative and genotoxic stress (immunoblot)
Procedure: To determine whether MUC1 is induced in response to oxidative stress, MCF-7 cells were treated with hydrogen peroxide. Cell lysates were analyzed by immunoblotting with anti-DF3/MUC1 antibody. Lysates were prepared by suspending MCF-7 cells in lysis buffer (50 mM Tris, pH 7.6, 150 mM NaCl, 1 mM PMSF, 3 mM NaF, 1 mM sodium vandate, 1 mM DTT with protease inhibitors and either 1% NP-40 or 1% Brij-96) for 30 min. on ice. Lysates were cleared by centifugation and equal amounts of proteins were resolved by SDS-PAGE. Proteins were then transferred to nitrocellulose filters, blocked by incubation in 5% non-fat dry milk in PBS with 0.05% Tween-20 and probed with anti-MUC1 antibody (Pandey et al., 1995). Anti-actin was used as a control.
Similar studies were performed with genotoxic agents.

HeLa cells = details: HeLa/MUC1 vs HeLa/V, FIG. 4
Procedure: DNA content was assessed by staining ethanol-fixed cells with propidium iodide and monitoring by FACScan (Beckton Dickerson). Numbers of cells with sub-G1 DNA content were determined with a MODFIT LT program, (Verity Software House, Topsham, Me.) (Yuan et al., 1997). The cells were analyzed for induction of sub-G1 DNA by flow cytometry as a marker of apoptosis.
The induction of apoptosis in cells treated with 0.01 mM taxol for 20 hr was assessed by measuring sub-G1 DNA content of HeLa cells expressing empty vector or MUC1.

CC(=O)N[C@@H](CS)C(=O)O [NAC, N-acetylcysteine]
CDDO-, CDDO-Me-, CDDO-Im- and CDDO-Pr-Im-induced decreases in MUC1 (MUC1 [1]; cells treated with antioxidant): blocked | H2O2-induced downregulation of MUC1 (MUC1 [1]; with NAC): reversed | CDDO-induced ROS production (intracellular ROS): abrogation

OO [hydrogen peroxide]
MUC1 expression (immunoblot) (MUC1 [2]; MCF-7 cells): rapidly and transiently induced | apoptotic response (sub-G1 DNA), effect of MUC1 (HeLa cells; 1 mM hydrogen peroxide for 1 hr): MUC1 inhibits the apoptotic response | MUC1 expression (MUC1 [1]; 0.1 mM H2O2): downregulation of MUC1

CC(=O)O[C@H]1C(=O)[C@@]2(C)[C@H]([C@H](OC(=O)c3ccccc3)[C@]3(O)C[C@H](OC(=O)[C@H](O)[C@@H](NC(=O)c4ccccc4)c4ccccc4)C(C)=C1C3(C)C)[C@]1(OC(C)=O)CO[C@@H]1C[C@@H]2O [taxol]
MUC1 induction by diverse cytotoxic agents (MUC1 [2]; available evidence, cells not given): induced | induced apoptosis (sub-G1 DNA), effect of MUC1 (HeLa cells; 0.01 mM taxol for 20 hr): inhibited by MUC1 expression
